Experimental data reported in patent US9302999B2, “Substituted triazoles as herbicides” (E. I. DU PONT DE NEMOURS AND COMPANY, priority 2012, dated 2016).

What was measured:
[1] = system: Barnyardgrass; assay: Test C preemergence: barnyardgrass; format: in vivo, Echinochloa crus-galli
From the text: Seeds of plant species selected from blackgrass (Alopecurus myosuroides), bromegrass, downy (downy bromegrass, Bromus tectorum), foxtail, green (green foxtail, Setaria viridis), ryegrass, Italian (Italian ryegrass, Lolium multiflorum), winter wheat (Triticum aestivum), wild oat (Avena fatua), galium (catchweed bedstraw, Galium aparine), bermudagrass (Cynodon dactylon), surinam grass (Brachiaria decumbens), cocklebur (common cocklebur, Xanthium strumarium), corn (Zea mays), large crabgrass (Digitaria sanguinalis), woolly cupgrass (Eriochloa villosa), foxtail, giant (giant foxtail, Setaria faberii), goosegrass (Eleusine indica), johnsongrass (Sorghum halepense), kochia (Kochia scoparia), lambsquarters (Chenopodium album), morningglory (Ipomoea coccinea), nightshade (eastern black nightshade, Solanum ptycanthum), nutsedge, yellow (yellow nutsedge, Cyperus esculentus), pigweed (Amaranthus retroflexus), ragweed (common ragweed, Ambrosia elation), soybean (Glycine max), common (oilseed) sunflower (Helianthus annuus), Russian thistle (Salsola kali) and velvetleaf (Abutilon theophrasti) were planted into a blend of loam soil and sand and treated preemergence with test chemicals formulated in a non-phytotoxic solvent mixture which included a surfactant.
(§1) Treated plants and controls were maintained in a greenhouse for 13 to 15 days, after which time all species were compared to controls and visually evaluated. Plant response ratings, summarized in Table C, are based on a scale of 0 to 100 where 0 is no effect and 100 is complete control. A dash (-) response means no test result.

[2] = system: poinsettia, wild (wild poinsettia, Euphorbia heterophylla); assay: Test F pre-/postemergence: poinsettia, wild; format: in vivo
From the text: Seeds of plant species selected from corn (Zea mays), soybean (Glycine max), velvetleaf (Abutilon theophrasti), lambsquarters (Chenopodium album), poinsettia, wild (wild poinsettia, Euphorbia heterophylla), pigweed, palmer (palmer pigweed, Amaranthus palmeri), waterhemp (common waterhemp, Amaranthus rudis), surinam grass (Brachiaria decumbens), crabgrass, Brazil (Brazilian crabgrass, Digitaria horizontalis), panicum, fall (fall panicum Panicum dichotomiflorum), crabgrass, large (large crabgrass, Digitaria sanguinalis), foxtail, giant (giant foxtail, Setaria faberii), foxtail, green (green foxtail Setaria viridis), goosegrass (Eleusine indica), ragweed (common ragweed, Ambrosia elatior), barnyardgrass (Echinochloa crus-galli), sandbur (southern sandbur, Cenchrus echinatus), arrowleaf sida (Sida rhombifolia), ryegrass, Italian (Italian ryegrass, Lolium multiflorum), dayflower, VA (Virginia (VA) dayflower, Commelina virginica), field bindweed (Convolvulus arvensis), cocklebur (common cocklebur, Xanthium strumarium), morningglory (Ipomoea coccinea), nightshade (eastern black nightshade, Solanum ptycanthum), kochia (Kochia scoparia), nutsedge, yellow (yellow nutsedge, Cyperus esculentus), johnsongrass (Sorghum halepense), smartweed (ladysthumb smartweed, Polygonum persicaria), and beggarticks (hairy beggarticks, Bidens pilosa), were planted into a silt loam soil and treated preemergence with test chemicals formulated in a non-phytotoxic solvent mixture which included a surfactant. At the same time, plants selected from these crop and weed species and also pigweed (Amaranthus retroflexus), waterhemp_RES1 (ALS/Triazine resistant common waterhemp, Amaranthus rudis) and waterhemp_RES2 (ALS/HPPD resistant common waterhemp, Amaranthus rudis) were planted in pots containing a planting medium comprising spaghnum peat moss, vermiculite, wetting agent and starter nutrients treated with postemergence applications of some of the test chemicals formulated in the same manner. Plants ranged in height from 2 to 18 cm for postemergence treatments (1- to 4-leaf stage).
as §1, with “14” for “13”, “21” for “15”, “E,” for “C,”

[3] = system: cocklebur (common cocklebur, Xanthium strumarium); assay: Test F pre-/postemergence: cocklebur; format: in vivo; details: Preemergence
In short: (§2)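 0–100 visual control scores, taken 14–21 d after application in the greenhouse. Preemergence treatment was made to silt loam soil at sowing. Postemergence sprays hit 1- to 4-leaf plants (2–18 cm) in peat/vermiculite mix. Surfactant-containing non-phytotoxic solvent served as the vehicle.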

[4] = system: soybean (Glycine max); assay: Test F pre-/postemergence: soybean; format: in vivo
In short: as §2

[5] = 31 g ai/ha, scale of 0 to 100, 0 is no effect, 100 is complete control
[6] = 62 g ai/ha, scale of 0 to 100, 0 is no effect, 100 is complete control
[7] = 125 g ai/ha, scale 0 to 100, 0 no effect, 100 complete control
[8] = Preemergence, 16 g ai/ha, scale 0 to 100 (0 no effect, 100 complete control)
[9] = Preemergence, 31 g ai/ha, scale 0 to 100 (0 no effect, 100 complete control)
[10] = Preemergence, 125 g ai/ha, scale 0 to 100
[11] = Preemergence, 250 g ai/ha, scale 0 to 100
[12] = Postemergence, 4 g ai/ha, scale 0 to 100
[13] = Postemergence, 8 g ai/ha, scale 0 to 100
[14] = Postemergence, 16 g ai/ha, scale 0 to 100
[15] = Postemergence, 31 g ai/ha, scale 0 to 100
[16] = Postemergence, 62 g ai/ha, scale 0 to 100
[17] = Preemergence, 4 g ai/ha, scale 0 to 100, 0 no effect, 100 complete control
[18] = Preemergence, 8 g ai/ha, scale 0 to 100, 0 no effect, 100 complete control

## CCCc1nn(-c2ccc(F)cc2)nc1Cc1ccnc(C(F)(F)F)c1 [Compound 153]
[1]; [5]
  Plant response rating, Barnyardgrass: 90
[1]; [6]
  Plant response rating, Barnyardgrass: 90
[1]; [7]
  Plant response rating, Barnyardgrass: 100
[2]; [8]
  Plant response rating, Poinsettia, Wild: 0
[2]; [9]
  Plant response rating, Poinsettia, Wild: 25
[2]; [10]
  Plant response rating, Poinsettia, Wild: 70
[2]; [11]
  Plant response rating, Poinsettia, Wild: 98
[3]; 16 g ai/ha, scale 0 to 100 (0 no effect, 100 complete control)
  Plant response rating, Cocklebur: 0
[3]; 62 g ai/ha, scale 0 to 100
  Plant response rating, Cocklebur: 0
[4]; [8]
  Plant response rating, Soybean: 0
[4]; [9]
  Plant response rating, Soybean: 0
[4]; [10]
  Plant response rating, Soybean: 5
[4]; [11]
  Plant response rating, Soybean: 25

## Cc1nn(-c2ccc(C(F)(F)F)c(F)c2)nc1Cc1ccnc(C(F)(F)F)c1 [Compound 162]
[1]; [5]
  Plant response rating, Barnyardgrass: 98
[1]; [6]
  Plant response rating, Barnyardgrass: 100
[1]; [7]
  Plant response rating, Barnyardgrass: 100
[2]; [12]
  Plant response rating, Poinsettia, Wild: 15
[2]; [13]
  Plant response rating, Poinsettia, Wild: 30
[2]; [14]
  Plant response rating, Poinsettia, Wild: 60
[2]; [15]
  Plant response rating, Poinsettia, Wild: 75
[2]; [16]
  Plant response rating, Poinsettia, Wild: 80
[2]; [17]
  Plant response rating, Poinsettia, Wild: 0
[2]; [18]
  Plant response rating, Poinsettia, Wild: 0
[2]; [8]
  Plant response rating, Poinsettia, Wild: 0
[2]; [9]
  Plant response rating, Poinsettia, Wild: 10
[3]; 4 g ai/ha, scale 0 to 100, 0 no effect, 100 complete control
  Plant response rating, Cocklebur: 0
[3]; 8 g ai/ha, scale 0 to 100, 0 no effect, 100 complete control
  Plant response rating, Cocklebur: 0
[3]; 31 g ai/ha, scale 0 to 100 (0 no effect, 100 complete control)
  Plant response rating, Cocklebur: 0
[3]; 62 g ai/ha, scale 0 to 100
  Plant response rating, Cocklebur: 0
[4]; [12]
  Plant response rating, Soybean: 20
[4]; [13]
  Plant response rating, Soybean: 30
[4]; [14]
  Plant response rating, Soybean: 30
[4]; [15]
  Plant response rating, Soybean: 45
[4]; [16]
  Plant response rating, Soybean: 55
[4]; [17]
  Plant response rating, Soybean: 0
[4]; [18]
  Plant response rating, Soybean: 0
[4]; [8]
  Plant response rating, Soybean: 0
[4]; [9]
  Plant response rating, Soybean: 25
